According to patent US20050222229A1, “Fungicidal mixtures” (priority 2002, published 2005):

System: Plasmopara viticola
Assay: Persistency against peronospora of grapevine caused by Plasmopara viticola (potted grapevines, inoculation 3 days after spraying)
Type: in vivo
Settings: grapevine Müller-Thurgau, inoculated 3 days after treatment
Procedure: The active compounds, separately or together, were formulated as a stock solution comprising 0.25% by weight of active compound in acetone or DMSO. 1% by weight of the emulsifier Uniperol® EL (wetting agent having emulsifying and dispersing action based on ethoxylated alkylphenols) was added to the solution, and the mixture was diluted with water to the desired concentration.
Use example: Persistency against peronospora of grapevine caused by Plasmopara viticola.
Leaves of potted grapevines of the cultivar “Müller-Thurgau” were sprayed to run off point with an aqueous suspension having the concentration of active compound stated below. To be able to assess the persistency of the substances, the plants were, after the spray coating had dried on, placed in a greenhouse for 3 days. Only then were the leaves inoculated with an aqueous zoospore suspension of Plasmopara viticola. The grapevines were then initially placed in a water-vapor-saturated chamber at 24° C. for 48 hours and then in a greenhouse at temperatures between 20 and 30° C. for 5 days. After this period of time, the plants were, to promote sporangiophore eruption, again placed in a humid chamber for 16 hours. The extent of the development of the infection on the undersides of the leaves was then determined visually.
for evaluation, the visually determined values for the percentages of infected leaf area were converted into efficacies in. % of the untreated control.
The efficacy (E) is calculated as follows using Abbot's formula: E=(1−α/β)·100 • α corresponds to the fungal infection of the treated plants in % and • β corresponds to the fungal infection of the untreated (control) plants in %
An efficacy of 0 means that the infection level of the treated plants corresponds to that of the untreated control plants; an efficacy of 100 means that the treated plants were not infected.
The expected efficacies of the active compound mixtures are determined using Colby's formula [R. S. Colby, Weeds 15, 20-22 (1967)] and compared with the observed efficacies. Colby's formula: E=x+y−x·y/100 • E expected efficacy, expressed in % of the untreated control, when using the mixture of the active compounds A and B at the concentrations a and b • x efficacy, expressed in % of the untreated control, when using active compound A at a concentration of a
y efficacy, expressed in % of the untreated control, when using active compound B at a concentration of b

[1] = 0.375 ppm active compound in the spray liquor
[2] = 0.75 ppm active compound in the spray liquor
[3] = 1.5 ppm active compound in the spray liquor
[4] = 3 ppm active compound in the spray liquor
[5] = 6 ppm active compound in the spray liquor

| SMILES | Efficacy in % of the untreated control (3.75 ppm active compound in the spray liquor) | Efficacy in % of the untreated control (7.5 ppm active compound in the spray liquor) | Efficacy in % of the untreated control (15 ppm active compound in the spray liquor) | Efficacy in % of the untreated control [1] | Efficacy in % of the untreated control [2] | Efficacy in % of the untreated control [3] | Efficacy in % of the untreated control [4] | Efficacy in % of the untreated control [5] |
| --- | --- | --- | --- | --- | --- | --- | --- | --- |
| N#Cc1sc2c(=O)c3ccccc3c(=O)c=2sc1C#N [II, dithianon] | 0% | 20% | 32% | – | – | – | – | – |
| CSC1=N[C@@](C)(c2ccccc2)C(=O)N1Nc1ccccc1 [Ia, fenamidone] | – | – | – | 66% | 77% | 93% | 89% | 94% |
| CC1(c2ccc(Oc3ccccc3)cc2)OC(=O)N(Nc2ccccc2)C1=O (stereo not shown) [Ib, famoxadone] | – | – | – | 0% | 77% | 83% | 89% | 89% |
